Assay results from patent US10670605B2, “Cysteine reactive probes and uses thereof” (The Scripps Research Institute, priority 2015, dated 2020).

Assays:
Experiment in all cases: Competitive isoTOP-ABPP, cell lysates
Format in all cases: binding
UBE2S C118 (Q16763) = molecular target: T1, UBE2S C118 (Q16763) (Homo sapiens, UniProt Q16763); conditions: for isoTOP-ABPP reactivity profile ratio, Q16763_C118: 500 μm
T1 sequence (Q16763 1-222): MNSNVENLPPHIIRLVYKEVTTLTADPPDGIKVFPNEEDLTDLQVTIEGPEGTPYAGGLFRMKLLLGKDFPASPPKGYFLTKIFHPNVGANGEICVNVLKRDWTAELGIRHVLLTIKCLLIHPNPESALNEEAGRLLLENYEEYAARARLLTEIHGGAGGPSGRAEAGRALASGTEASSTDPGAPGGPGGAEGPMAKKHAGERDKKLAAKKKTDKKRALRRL

IRF4 C194 (Q15306) = molecular target: T2, IRF4 C194 (Q15306) (Homo sapiens, UniProt Q15306); conditions: for isoTOP-ABPP ratio (reactivity profile), Q15306_C194: 500 μm in-vitro ramos
T2 sequence (Q15306 1-451): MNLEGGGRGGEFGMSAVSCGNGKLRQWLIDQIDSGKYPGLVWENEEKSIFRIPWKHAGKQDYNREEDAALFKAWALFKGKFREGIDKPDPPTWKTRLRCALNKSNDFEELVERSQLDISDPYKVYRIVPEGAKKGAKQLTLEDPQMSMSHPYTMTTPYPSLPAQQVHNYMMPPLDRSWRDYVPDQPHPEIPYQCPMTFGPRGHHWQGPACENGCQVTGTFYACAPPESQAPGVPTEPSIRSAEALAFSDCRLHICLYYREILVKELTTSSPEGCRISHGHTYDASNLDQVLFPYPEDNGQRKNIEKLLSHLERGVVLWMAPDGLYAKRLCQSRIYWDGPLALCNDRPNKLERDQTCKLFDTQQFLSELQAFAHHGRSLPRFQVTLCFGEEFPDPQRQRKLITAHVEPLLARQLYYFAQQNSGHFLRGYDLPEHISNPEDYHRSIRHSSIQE

IDH2 C308 (P48735) = molecular target: T3, IDH2 C308 (P48735) (Homo sapiens, UniProt P48735); conditions: for isoTOP-ABPP ratio (reactivity profile), P48735_C308: 500 μm in-vitro ramos_231; for isoTOP-ABPP reactivity profile ratio, P48735_C308: 500 μm, in-vitro_ramos_231
T3 sequence (P48735 40-452): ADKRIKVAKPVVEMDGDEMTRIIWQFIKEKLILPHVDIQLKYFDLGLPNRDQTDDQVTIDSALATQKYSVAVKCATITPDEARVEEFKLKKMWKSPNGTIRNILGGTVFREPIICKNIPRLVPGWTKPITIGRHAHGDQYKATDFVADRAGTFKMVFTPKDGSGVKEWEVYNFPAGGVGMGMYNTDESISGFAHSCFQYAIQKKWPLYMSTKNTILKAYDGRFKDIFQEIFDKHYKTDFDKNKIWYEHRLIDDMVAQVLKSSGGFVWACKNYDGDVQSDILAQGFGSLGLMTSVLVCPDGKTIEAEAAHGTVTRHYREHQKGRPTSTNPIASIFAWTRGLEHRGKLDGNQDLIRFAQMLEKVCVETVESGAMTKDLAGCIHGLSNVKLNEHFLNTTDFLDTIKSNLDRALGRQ

ACAT1 C119 (P24752) = molecular target: T4, ACAT1 C119 (P24752) (Homo sapiens, UniProt P24752); conditions: for isoTOP-ABPP reactivity profile ratio, P24752_C119: 500 μm
T4 sequence (P24752 34-427): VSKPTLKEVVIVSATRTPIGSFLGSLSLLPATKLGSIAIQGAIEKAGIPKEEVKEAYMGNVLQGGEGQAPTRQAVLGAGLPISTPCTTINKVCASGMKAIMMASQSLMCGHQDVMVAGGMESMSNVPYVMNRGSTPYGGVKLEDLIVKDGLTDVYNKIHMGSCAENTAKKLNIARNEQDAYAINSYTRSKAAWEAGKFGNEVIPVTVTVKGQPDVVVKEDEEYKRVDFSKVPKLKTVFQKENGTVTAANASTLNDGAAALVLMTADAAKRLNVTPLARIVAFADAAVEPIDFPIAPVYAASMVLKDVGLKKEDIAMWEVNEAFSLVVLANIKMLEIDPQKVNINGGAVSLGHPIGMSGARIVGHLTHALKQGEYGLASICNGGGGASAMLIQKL

ACAT1 C126 (P24752) = molecular target: T5, ACAT1 C126 (P24752) (Homo sapiens, UniProt P24752); conditions: for isoTOP-ABPP reactivity profile ratio, P24752_C126: 500 μm, in-vitro_ramos_231
T5 sequence (P24752 34-427): T4 sequence (P24752 34-427)

ACAT1 C413 (P24752) = molecular target: T6, ACAT1 C413 (P24752) (Homo sapiens, UniProt P24752); conditions: for isoTOP-ABPP reactivity profile ratio, P24752_C413: 500 μm, in-vitro_ramos_231
T6 sequence (P24752 34-427): T4 sequence (P24752 34-427)

Compound | isoTOP-ABPP ratio (reactivity profile), Q15306_C194 (IRF4 C194 (Q15306)) | isoTOP-ABPP ratio (reactivity profile), P48735_C308 (IDH2 C308 (P48735)) | isoTOP-ABPP ratio (reactivity profile), P24752_C119 (ACAT1 C119 (P24752); 500 μm in-vitro ramos) | isoTOP-ABPP ratio (reactivity profile), P24752_C119 (ACAT1 C119 (P24752); 500 μm in-vitro ramos_231) | isoTOP-ABPP ratio (reactivity profile), P24752_C126 (ACAT1 C126 (P24752); 500 μm in-vitro ramos) | isoTOP-ABPP ratio (reactivity profile), P24752_C126 (ACAT1 C126 (P24752); 500 μm in-vitro ramos_231) | isoTOP-ABPP ratio (reactivity profile), P24752_C413 (ACAT1 C413 (P24752); 500 μm in-vitro ramos) | isoTOP-ABPP ratio (reactivity profile), P24752_C413 (ACAT1 C413 (P24752); 500 μm in-vitro ramos_231) | isoTOP-ABPP ratio (reactivity profile), Q16763_C118 (UBE2S C118 (Q16763); 500 μm in-vitro ramos_231) | isoTOP-ABPP reactivity profile ratio, Q16763_C118 (UBE2S C118 (Q16763); in-vitro_ramos_231) | isoTOP-ABPP reactivity profile ratio, P48735_C308 (IDH2 C308 (P48735)) | isoTOP-ABPP reactivity profile ratio, P24752_C119 (ACAT1 C119 (P24752); in-vitro_ramos_231) | isoTOP-ABPP reactivity profile ratio, P24752_C126 (ACAT1 C126 (P24752)) | isoTOP-ABPP reactivity profile ratio, P24752_C413 (ACAT1 C413 (P24752)) | isoTOP-ABPP reactivity profile ratio, Q16763_C118 (UBE2S C118 (Q16763); in-vitro_ramos) | isoTOP-ABPP reactivity profile ratio, Q15306_C194 (IRF4 C194 (Q15306); 500 μm, in-vitro_ramos) | isoTOP-ABPP reactivity profile ratio, P24752_C119 (ACAT1 C119 (P24752); in-vitro_ramos) | isoTOP-ABPP ratio (reactivity profile), Q16763_C118 (UBE2S C118 (Q16763); 500 μm in-vitro ramos)
O=C(CCl)N1CCC(C(O)(c2ccccc2)c2ccccc2)CC1 [compound 20] | 3.0 | 0.5 | 2.6 | 3.6 | 20.0 | 10.6 | 14.0 | 20.0 |  |  |  |  |  |  |  |  |  | 2.9
O=C(CCl)NC12CC3CC(CC(C3)C1)C2 [compound 21] | 1.7 | 0.6 | 1.1 | 0.9 | 1.4 | 1.2 | 1.4 | 1.4 | 0.9 |  |  |  |  |  |  |  |  | 
CC(Cl)C(=O)Nc1cc(C(F)(F)F)cc(C(F)(F)F)c1 (stereo not drawn) [compound 25] |  | 14.5 |  | 1.0 |  | 0.9 |  | 1.0 | 1.0 |  |  |  |  |  |  |  |  | 

Further lines, with some results ahead:

isoTOP-ABPP ratio (reactivity profile), Q15306_C194 (IRF4 C194 (Q15306)) | isoTOP-ABPP ratio (reactivity profile), P48735_C308 (IDH2 C308 (P48735)) | isoTOP-ABPP ratio (reactivity profile), P24752_C119 (ACAT1 C119 (P24752); 500 μm in-vitro ramos) | isoTOP-ABPP ratio (reactivity profile), P24752_C119 (ACAT1 C119 (P24752); 500 μm in-vitro ramos_231) | isoTOP-ABPP ratio (reactivity profile), P24752_C126 (ACAT1 C126 (P24752); 500 μm in-vitro ramos) | isoTOP-ABPP ratio (reactivity profile), P24752_C126 (ACAT1 C126 (P24752); 500 μm in-vitro ramos_231) | isoTOP-ABPP ratio (reactivity profile), P24752_C413 (ACAT1 C413 (P24752); 500 μm in-vitro ramos) | isoTOP-ABPP ratio (reactivity profile), P24752_C413 (ACAT1 C413 (P24752); 500 μm in-vitro ramos_231) | isoTOP-ABPP ratio (reactivity profile), Q16763_C118 (UBE2S C118 (Q16763); 500 μm in-vitro ramos_231) | isoTOP-ABPP reactivity profile ratio, Q16763_C118 (UBE2S C118 (Q16763); in-vitro_ramos_231) | isoTOP-ABPP reactivity profile ratio, P48735_C308 (IDH2 C308 (P48735)) | isoTOP-ABPP reactivity profile ratio, P24752_C119 (ACAT1 C119 (P24752); in-vitro_ramos_231) | isoTOP-ABPP reactivity profile ratio, P24752_C126 (ACAT1 C126 (P24752)) | isoTOP-ABPP reactivity profile ratio, P24752_C413 (ACAT1 C413 (P24752)) | isoTOP-ABPP reactivity profile ratio, Q16763_C118 (UBE2S C118 (Q16763); in-vitro_ramos) | isoTOP-ABPP reactivity profile ratio, Q15306_C194 (IRF4 C194 (Q15306); 500 μm, in-vitro_ramos) | isoTOP-ABPP reactivity profile ratio, P24752_C119 (ACAT1 C119 (P24752); in-vitro_ramos) | Compound | isoTOP-ABPP ratio (reactivity profile), Q16763_C118 (UBE2S C118 (Q16763); 500 μm in-vitro ramos)
1.2 | 1.0 | 0.6 | 1.3 | 0.8 | 1.1 | 0.7 | 1.3 |  |  |  |  |  |  |  |  |  | O=C(CCl)N1CCN(CC(=O)N2CCOCC2)CC1 [compound 29] | 
 |  |  |  |  |  |  |  |  | 1.0 | 0.2 | 0.8 | 0.9 | 1.1 |  |  |  | C=CC(=O)N(c1ccccc1)C1CCCCC1 [compound 46] | 
 |  |  |  |  |  |  |  |  | 0.8 | 2.2 | 2.1 | 20.0 | 9.2 |  |  |  | O=C(CCl)N1CCc2cc(Br)ccc21 [compound 50] | 
 |  |  |  |  |  |  |  |  | 1.0 | 0.5 | 0.9 |  | 1.0 | 0.8 | 1.0 | 0.7 | C=CC(=O)N1CCC(Cc2ccccc2)CC1 [compound 53] | 
